Read-outs that look alike come from different tables or passages of the source.
Columns and labels:
spleen cells = test: Cytokine modulation in spleen cells (IFN-γ); assay type: cell-based, BALB/c mice
Method: BALB/c male and female mice bred and maintained at the University of Strathclyde under conventional conditions were used at varying age.
Cells suspensions were prepared by using the end of a syringe and grinding the spleen through a wire mesh. The cell suspension was then centrifuged at 1000 rpm for 5 minutes. To remove the erythrocytes, the cell pellet was resuspended in Boyle's solution (Tris 0.17M & Ammonium Chloride 0.16M) and centrifuged again for 5 minutes. The pellet was then washed in medium a further two times, then resuspended in 3 mls medium. A cell count was then carried out.
All spleen cell experiments were carried out in 96-well tissue culture plates. […] Unstimulated wells contained 100 μl of cells and 100 μl of medium. The stimulated wells contained 100 μl of cells plus 50 μl of LPS at 1 μg/ml or 50 μl anti-CD3 at 0.5 μg/ml and 50 μl of medium. The remaining wells contained 100 μl cells, 5 μl of MNLP compound and either 50 μl of anti-CD3 or medium alone.
The appropriate Mabs and standards were used according to the protocol described for IL-12 (described in Example 1, above).

B16-F10 tumour cells = test: Control of lung metastasis in mice (B16-F10); assay type: in vivo, C57/bl6 mice; conditions: 50 mg/kg s/c on days 2 and 4; lungs on day 14
Method: Mice (C57/bl6 under i/p ketamine anaesthesia) were challenged i/v (tail vein) with 5×10^4 B16-F10 tumour cells in a final volume of 100 μl per mouse on day 0. Test compounds (50 mg/kg in 200 μl sterile non-pyrogenic saline) were administered sic (right flank) on days 2 and 4. On day 14 the mice were sacrifices and the lungs dissected and stained in Indian ink solution (150 ml bidistilled water, 30 ml India Ink, 4 drops NH4OH) for 10 minutes then fixed for at least 24 hr in Fakete's solution (90 ml 37% formaldehyde, 900 ml 70% EtOH and 45 ml glacial acetic acid). The metastases in the stained and fixed lungs could then be visualized, counted and photographed.

β-D-glucosidase = test: Glycosidase inhibition: β-D-glucosidase, almond; assay type: biochemical, Almonds (Prunus sp.); conditions: 1 mg/ml
Method: (§1) All enzymes were purchased from Sigma, as were the appropriate p-nitrophenyl substrates. Assays were carried out in microtitre plates. Enzymes were assayed in 0.1M citric acid/0.2M di-sodium hydrogen phosphate (McIlvaine) buffers at the optimum pH for the enzyme. All assays were carried out at 20° C. For screening assays the incubation assay consisted of 10 μl of enzyme solution, 10 μl of inhibitor solution (made up in water) and 50 μl of the appropriate 5 mM p-nitrophenyl substrate (3.57 mM final conc.) made up in McIlvaine buffer at the optimum pH for the enzyme.
(§2) The reactions were stopped with 0.4M glycine (pH 10.4) during the exponential phase of the reaction, which was determined at the beginning of the assay using blanks with water, which were incubated for a range of time periods to measure the reaction rate using 5 mM substrate solution. Endpoint absorbances were read at 405 nm with a Biorad microtitre plate reader (Benchmark). Water was substituted for the inhibitors in the blanks.

α-D-glucosidase [1] = test: Glycosidase inhibition: α-D-glucosidase, Bacillus; assay type: biochemical, Bacillus stearothermophilus; conditions: 1 mg/ml
Method: as §1, §2

Naringinase = test: Glycosidase inhibition: Naringinase; assay type: biochemical, Penecillium decumbens; conditions: 1 mg/ml
Method: as §1, §2

[2] = system: N-acetyl-β-D-glucosaminidase; test: Glycosidase inhibition: N-acetyl-β-D-glucosaminidase; assay type: biochemical, Bovine; conditions: 1 mg/ml
Method: as §1, §2

α-L-fucosidase = target: T1, α-L-fucosidase (Bos taurus, UniProt Q2KIM0); test: Glycosidase inhibition: α-L-fucosidase; assay type: biochemical, Bovine
T1 construct: purchased Sigma
T1 sequence (Q2KIM0 23-468): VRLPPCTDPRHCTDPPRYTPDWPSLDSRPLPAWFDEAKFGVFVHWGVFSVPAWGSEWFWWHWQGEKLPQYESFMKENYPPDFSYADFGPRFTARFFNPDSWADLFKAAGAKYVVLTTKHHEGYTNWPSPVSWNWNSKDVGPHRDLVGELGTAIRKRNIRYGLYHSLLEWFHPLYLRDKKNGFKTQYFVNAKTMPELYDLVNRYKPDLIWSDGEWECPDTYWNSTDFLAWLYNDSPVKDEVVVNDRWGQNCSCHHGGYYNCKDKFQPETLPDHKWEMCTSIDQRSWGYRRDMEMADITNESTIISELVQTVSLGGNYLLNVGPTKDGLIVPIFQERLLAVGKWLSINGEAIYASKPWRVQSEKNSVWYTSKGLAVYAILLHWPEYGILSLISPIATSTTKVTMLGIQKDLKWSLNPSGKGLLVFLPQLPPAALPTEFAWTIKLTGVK
Method: as §1, §2

α-D-glucosidase [3] = target: T2, α-D-glucosidase (Oryza sativa subsp. japonica, UniProt Q653V7); test: Glycosidase inhibition: α-D-glucosidase, rice; assay type: biochemical, rice (Oryza sativa)
T2 construct: purchased Sigma
Method: as §1, §2

α-D-galactosidase = target: T3, α-D-galactosidase (Coffea arabica, UniProt Q42656); test: Glycosidase inhibition: α-D-galactosidase; assay type: biochemical, Green coffee beans (Coffea sp.)
T3 construct: purchased Sigma
Method: as §1, §2

α-D-mannosidase = target: T4, α-D-mannosidase (Canavalia ensiformis, UniProt C0HJB3); test: Glycosidase inhibition: α-D-mannosidase; assay type: biochemical, Jack beans (Canavalia ensiformis)
T4 construct: purchased Sigma
Method: All enzymes were purchased from Sigma, as were the appropriate p-nitrophenyl substrates. Assays were carried out in microtitre plates. Enzymes were assayed in 0.1M citric acid/0.2M di-sodium hydrogen phosphate (McIlvaine) buffers at the optimum pH for the enzyme. All assays were carried out at 20° C.
Endpoint absorbances were read at 405 nm with a Biorad microtitre plate reader (Benchmark). Water was substituted for the inhibitors in the blanks.

α-D-glucosidase [4] = target: T5, α-D-glucosidase (Saccharomyces cerevisiae, UniProt P53341); test: Glycosidase inhibition (p-nitrophenyl substrate): α-D-glucosidase, yeast; assay type: biochemical, Saccharomyces cerevisiae (Baker's yeast); conditions: 1 mg/ml
T5 construct: purchased Sigma
Method: as §1, §2

β-D-galactosidase = test: Glycosidase inhibition: β-D-galactosidase; assay type: biochemical, Bovine; conditions: 1 mg/ml
Method: as §1, §2

HSV-1 (SC16) = conditions: versus infected untreated group
[5] = 1 mg/ml, read-out: % inhibition, fucosidase
[6] = 1 mg/ml, read-out: % inhibition, gluc (rice)
[7] = read-out: % inhibition, galactosidase
[8] = read-out: % inhibition, mannosidase
[9] = read-out: % inhibition, gluc (yeast)
[10] = read-out: % inhibition, α-mannosidase
[11] = read-out: % inhibition, α-gluc (yeast)
[12] = read-out: % inhibition, α-fucosidase
[13] = read-out: % inhibition, α-gluc (rice)
[14] = 1 mg/ml, read-out: % inhibition, α-galactosidase
[15] = 1 mg/ml, read-out: % inhibition, α-fucosidase
[16] = 1 mg/ml, read-out: % inhibition, α-gluc (rice)

T4 sequence (C0HJB3 whole entry): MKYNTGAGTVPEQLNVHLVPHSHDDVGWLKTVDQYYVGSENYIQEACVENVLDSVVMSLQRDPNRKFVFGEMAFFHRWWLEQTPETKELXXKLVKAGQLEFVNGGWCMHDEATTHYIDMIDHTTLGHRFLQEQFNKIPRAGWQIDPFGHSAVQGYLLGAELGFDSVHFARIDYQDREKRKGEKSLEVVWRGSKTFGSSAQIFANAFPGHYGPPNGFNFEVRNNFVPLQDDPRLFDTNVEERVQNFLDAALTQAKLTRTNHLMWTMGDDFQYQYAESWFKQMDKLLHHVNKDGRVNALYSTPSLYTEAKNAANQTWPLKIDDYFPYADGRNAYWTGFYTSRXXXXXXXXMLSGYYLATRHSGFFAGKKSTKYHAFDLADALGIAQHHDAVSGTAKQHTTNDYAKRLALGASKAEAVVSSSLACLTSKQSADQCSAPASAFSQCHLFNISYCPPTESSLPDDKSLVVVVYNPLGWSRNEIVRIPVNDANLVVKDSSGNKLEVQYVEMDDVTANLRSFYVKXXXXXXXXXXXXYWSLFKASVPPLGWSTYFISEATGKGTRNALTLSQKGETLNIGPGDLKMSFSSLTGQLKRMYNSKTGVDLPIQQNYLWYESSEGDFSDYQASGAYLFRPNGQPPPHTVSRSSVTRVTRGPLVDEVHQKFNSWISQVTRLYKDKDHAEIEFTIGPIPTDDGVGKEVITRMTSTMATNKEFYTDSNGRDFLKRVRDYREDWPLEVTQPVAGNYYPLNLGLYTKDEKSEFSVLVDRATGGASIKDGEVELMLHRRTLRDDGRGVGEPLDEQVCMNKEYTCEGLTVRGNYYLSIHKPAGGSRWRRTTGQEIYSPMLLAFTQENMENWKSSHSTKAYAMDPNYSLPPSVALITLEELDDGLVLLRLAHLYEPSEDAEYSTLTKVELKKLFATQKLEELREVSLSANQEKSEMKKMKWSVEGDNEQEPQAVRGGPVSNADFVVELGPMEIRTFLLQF
T5 sequence (P53341 whole entry): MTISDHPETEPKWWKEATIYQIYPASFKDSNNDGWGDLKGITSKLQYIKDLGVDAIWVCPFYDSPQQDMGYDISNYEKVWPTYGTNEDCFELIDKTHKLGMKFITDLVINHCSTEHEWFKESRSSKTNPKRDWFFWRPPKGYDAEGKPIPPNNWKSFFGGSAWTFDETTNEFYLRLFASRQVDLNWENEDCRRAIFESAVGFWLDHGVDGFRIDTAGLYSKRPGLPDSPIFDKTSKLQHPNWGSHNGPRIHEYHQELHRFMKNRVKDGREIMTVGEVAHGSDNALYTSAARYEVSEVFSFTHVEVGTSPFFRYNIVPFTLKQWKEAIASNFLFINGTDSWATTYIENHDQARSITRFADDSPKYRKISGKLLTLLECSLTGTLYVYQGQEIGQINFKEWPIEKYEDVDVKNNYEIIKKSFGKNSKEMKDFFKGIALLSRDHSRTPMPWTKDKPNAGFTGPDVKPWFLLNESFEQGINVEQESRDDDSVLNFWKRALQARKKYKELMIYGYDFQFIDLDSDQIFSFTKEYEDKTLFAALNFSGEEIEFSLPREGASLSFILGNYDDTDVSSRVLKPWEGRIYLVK
T2 sequence (Q653V7 34-885): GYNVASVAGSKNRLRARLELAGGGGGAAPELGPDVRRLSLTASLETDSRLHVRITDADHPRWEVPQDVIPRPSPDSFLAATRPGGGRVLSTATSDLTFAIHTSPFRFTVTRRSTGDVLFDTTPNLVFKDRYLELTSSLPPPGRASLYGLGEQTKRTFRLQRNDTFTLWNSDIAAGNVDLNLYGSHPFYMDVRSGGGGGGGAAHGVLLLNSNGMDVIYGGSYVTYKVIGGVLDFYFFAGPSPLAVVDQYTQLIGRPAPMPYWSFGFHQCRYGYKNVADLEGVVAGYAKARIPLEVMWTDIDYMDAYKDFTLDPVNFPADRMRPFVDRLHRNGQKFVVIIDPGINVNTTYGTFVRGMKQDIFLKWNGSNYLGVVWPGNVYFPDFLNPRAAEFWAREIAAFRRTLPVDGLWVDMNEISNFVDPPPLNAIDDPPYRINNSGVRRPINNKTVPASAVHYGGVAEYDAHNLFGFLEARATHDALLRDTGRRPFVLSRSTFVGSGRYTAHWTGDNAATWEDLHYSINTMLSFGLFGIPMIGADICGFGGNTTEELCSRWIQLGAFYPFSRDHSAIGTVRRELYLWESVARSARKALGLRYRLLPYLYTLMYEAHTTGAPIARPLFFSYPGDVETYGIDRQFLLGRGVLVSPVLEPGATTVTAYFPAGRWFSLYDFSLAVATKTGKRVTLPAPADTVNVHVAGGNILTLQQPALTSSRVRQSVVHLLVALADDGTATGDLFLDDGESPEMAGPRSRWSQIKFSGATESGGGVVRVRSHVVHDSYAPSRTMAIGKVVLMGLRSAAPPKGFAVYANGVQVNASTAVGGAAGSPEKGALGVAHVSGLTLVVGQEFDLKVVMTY
T3 sequence (Q42656 16-378): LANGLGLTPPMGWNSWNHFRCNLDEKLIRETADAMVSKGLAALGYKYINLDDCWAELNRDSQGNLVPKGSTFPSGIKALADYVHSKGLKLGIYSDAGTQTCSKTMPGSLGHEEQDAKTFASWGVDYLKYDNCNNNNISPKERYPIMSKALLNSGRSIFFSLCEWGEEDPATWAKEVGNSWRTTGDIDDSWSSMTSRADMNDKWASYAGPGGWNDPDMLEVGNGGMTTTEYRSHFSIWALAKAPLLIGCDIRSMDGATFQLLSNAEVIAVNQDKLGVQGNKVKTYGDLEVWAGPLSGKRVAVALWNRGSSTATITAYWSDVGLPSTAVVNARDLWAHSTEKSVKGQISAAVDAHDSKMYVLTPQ

Structure (SMILES)	% inhibition, glucosidase (β-D-glucosidase)	% inhibition, gluc (Bacillus) (α-D-glucosidase [1])	% inhibition, Naringinase (Naringinase)	% inhibition, N-acetyl-β-gluc [2]	inhibition at 1000 µg/mL (α-D-glucosidase [3]; [6])	% inhibition, β-galactosidase (β-D-galactosidase)	% inhibition, β-glucosidase (β-D-glucosidase)	% inhibition, α-gluc (Bacillus) (α-D-glucosidase [1])	inhibition at 1000 µg/mL (α-D-mannosidase; [10])	inhibition at 1000 µg/mL (α-D-glucosidase [4]; [11])	inhibition at 1000 µg/mL (α-D-galactosidase; [14])	also measured
OC[C@H]1NC[C@H](O)[C@@H](O)[C@@H]1O [1-Deoxynojirimycin (DNJ) (21), 1-Deoxynojirimycin]												IFN-γ secretion/production in splenocytes (spleen cells): inhibited
OC[C@H]1[C@@H](O)[C@H](O)[C@H]2[C@H](O)[C@@H](O)CN21 [3-epi-casuarine (14), 3-epi-casuarine]	56%	12%	21%	−1%	13%							Metastatic morphology (B16-F10 tumour cells): Metastasis restricted to apical tip of lung; inhibition at 1000 µg/mL (α-L-fucosidase; [5]): -2%; inhibition at 1000 µg/mL (α-D-galactosidase; [7]): 4%
OC[C@@H]1[C@@H](O)[C@H](O)[C@H]2[C@@H](O)[C@@H](O)CN21 [7-epi-casuarine (11), 7-epi-casuarine]	30%	5%	−4%		73%							inhibition at 1000 µg/mL (α-L-fucosidase; [5]): 25%; inhibition at 1000 µg/mL (α-D-galactosidase; [7]): 1%
OC[C@H]1[C@@H](O)[C@H](O)[C@H]2[C@@H](O)[C@H](O)CN21 [Compound 12, 3,6,7-triepi-casuarine]	6%	9%	0%	19%	0%							inhibition at 1000 µg/mL (α-D-mannosidase; [8]): 8%; inhibition at 1000 µg/mL (α-D-glucosidase [4]; [9]): 2%; inhibition at 1000 µg/mL (α-L-fucosidase; [5]): -11%; inhibition at 1000 µg/mL (α-D-galactosidase; [7]): 2%
OC[C@H]1[C@@H](O)[C@H](O)[C@@H]2[C@@H](O)[C@H](O)CN21 [Compound 21, 3,6,7,7a-tetraepi-casuarine]	44%	−2%	5%	27%	46%							inhibition at 1000 µg/mL (α-D-mannosidase; [8]): 1%; inhibition at 1000 µg/mL (α-D-galactosidase; [7]): -3%
OC[C@H]1[C@@H](O)[C@H](O)[C@@H]2[C@@H](O)[C@@H](O)CN21 [Compound 22, 3,7,7a-triepi-casuarine]	52%	87%	10%		0%							inhibition at 1000 µg/mL (α-D-glucosidase [4]; [9]): 29%
O[C@@H]1[C@@H]2[C@@H](O)[C@H](O)[C@H](O)CN2C[C@H]1O [Compound 35, 2-α-hydroxy-6-epi-castanospermine]			0%	20%		−1%	−3%	−12%	11%	-5%	-5%	inhibition at 1000 µg/mL (α-L-fucosidase; [12]): 0%; inhibition at 1000 µg/mL (α-D-glucosidase [3]; [13]): 61%
OC[C@H]1N[C@H](c2ccc(O)cc2)[C@@H](O)[C@@H]1O [Compound 36, PLB1]			41%	30%		52%	52%	62%	42%	19%	43%	inhibition at 1000 µg/mL (α-L-fucosidase; [15]): 13%; inhibition at 1000 µg/mL (α-D-glucosidase [3]; [16]): 54%
O[C@@H]1[C@@H]2[C@@H](O)[C@H](O)[C@@H](O)CN2C[C@@H]1O [Compound 44, 2-β-hydroxycastanospermine]			6%	13%		−1%	20%		1%	8%	-4%	
OCCN1C[C@@H](O)[C@H](O)[C@H]1CO [Compound 55, N-hydroxyethyl-1,4-dideoxy-1,4-imino-D-arabinitol]			44%	6%		13%	44%	15%	5%	-3%	4%	inhibition at 1000 µg/mL (α-L-fucosidase; [15]): -7%; inhibition at 1000 µg/mL (α-D-glucosidase [3]; [16]): 71%
O[C@@H]1[C@@H]2[C@@H](O)[C@H](O)[C@@H](O)CN2C[C@H]1O [Compound 64, 2-α-hydroxycastanospermine]			76%	21%		−3%	−1%	−15%	21%	-6%	-9%	inhibition at 1000 µg/mL (α-L-fucosidase; [12]): 4%; inhibition at 1000 µg/mL (α-D-glucosidase [3]; [13]): 12%
COc1cc([C@H]2N[C@H](CO)[C@@H](O)[C@@H]2O)ccc1O [Compound 65, PLB2]			4%	0%		18%	25%	37%	-16%	37%	4%	inhibition at 1000 µg/mL (α-L-fucosidase; [15]): -4%; inhibition at 1000 µg/mL (α-D-glucosidase [3]; [16]): 0%
OCC1N[C@H](CO)[C@@H](O)[C@@H]1O (some centres unmarked) [DMDP, 2,6-dihydroxymethyl-3,4-dihydroxypyrrolidine]			0%	25%		71%	81%	85%	25%	74%	-3%	inhibition at 1000 µg/mL (α-L-fucosidase; [15]): -4%; inhibition at 1000 µg/mL (α-D-glucosidase [3]; [16]): 91%
CC(=O)OCC(CCn1cnc2cnc(N)nc21)COC(C)=O [famciclovir, reference compound]												ear thickness response (HSV-1 (SC16)): almost completely negated

Source: patent publication US20090117083A1, “IMMUNOMODULATORY ALKALOIDS” (M N L PHARMA LIMITED, priority 2004, published 2009)
